Results taken from patent US3931407A, “Method of treatment with and compositions containing condensed pyrroles bearing an N-phenyl substituent” (American Hoechst Corporation, priority 1974, dated 1976).

System: edema induced by carrageenin in rat paws
Assay: Carrageenin paw edema in rats
Type: in vivo
Conditions: dose producing 50% reduction in edema vs non-treated controls, rats, read-out: Carrageenin paw edema-rats ED50

Row | SMILES | ED50 [mg/kg]
1 | O=C(O)c1cc(-n2c(-c3ccccc3)cc3c2CCCCC3)ccc1O [1-(3-Carboxy-4-hydroxyphenyl)-1,4,5,6,7,8-hexahydro-2-phenylcyclohepta[b]pyrrole] | 125
2 | O=C(O)c1cc(-n2c(-c3ccc(F)cc3)cc3c2CCCC3)ccc1O [1-(3-Carboxy-4-hydroxyphenyl)-2-(4-fluorophenyl)-4,5,6,7-tetrahydroindole] | 88
3 | O=C(O)c1cc(-n2c(-c3ccccc3)cc3c2CCC3)ccc1O [1-(3-Carboxy-4-hydroxyphenyl)-2-phenyl-1,4,5,6-tetrahydrocyclopenta[b]pyrrole] | 110
4 | O=C(O)c1cc(-n2c(-c3ccccc3)cc3c2CCCC3)ccc1O [1-(3-Carboxy-4-hydroxyphenyl)-2-phenyl-4,5,6,7-tetrahydroindole] | 87
5 | O=C(O)c1cc(-n2c(-c3ccccc3)cc3c2CCCC3)ccc1S [1-(3-Carboxy-4-mercaptophenyl)-2-phenyl-4,5,6,7-tetrahydroindole] | 140

System: writhing induced in mice by 2-phenyl-1,4-benzoquinone
Assay: Phenylquinone (2-phenyl-1,4-benzoquinone) writhing in mice, analgesic activity
Type: in vivo
Conditions: Mus musculus; dose producing 50% reduction in number of writhes vs non-treated controls; mice; read-out: Phenylquinone writhing-mice ED50
Excerpt: Exp. Biol. Med., 95, 729 (1957)]. The activity of several representative compounds of the present invention and of aspirin and phenylbutazone is expressed as ED50, the dose (mg/kg) of compound producing a 50% reduction in the number of writhes as compared to non-treated 2-phenyl-1,4-benzoquinone dosed controls.

Row | SMILES | ED50 [mg/kg]
6 | O=C(O)c1cc(-n2c(-c3ccccc3)cc3c2CCCCC3)ccc1O [1-(3-Carboxy-4-hydroxyphenyl)-1,4,5,6,7,8-hexahydro-2-phenylcyclohepta[b]pyrrole] | 10
7 | O=C(O)c1cc(-n2c(-c3ccccc3)cc3c2CCC3)ccc1O [1-(3-Carboxy-4-hydroxyphenyl)-2-phenyl-1,4,5,6-tetrahydrocyclopenta[b]pyrrole] | 10
8 | O=C(O)c1cc(-n2c(-c3ccccc3)cc3c2CCCC3)ccc1O [1-(3-Carboxy-4-hydroxyphenyl)-2-phenyl-4,5,6,7-tetrahydroindole] | 17

System: yeast-induced pyrexia in rats
Assay: Antipyretic assay, yeast-induced pyrexia in rats
Type: in vivo, female Charles River or Wistar rats
Conditions: Rattus norvegicus; dose producing ≥ 1° reduction in rectal temperature in 50 percent of fevered rats; oral; 2 hours past drug
Protocol: A common property of useful anti-inflammatory agents is their ability to lower elevated body temperatures. […] Groups of ten female Charles River or Wistar rats (120-150 gm) are injected with a 20% water suspension of "Brewers Yeast" subcutaneously into the nape of the neck (10 ml/kg). The animals are starved (water ad lib.) and 18 hours later rectal temperatures are monitored (Tele-Thermometer, Yellow Springs Instrument Co., Inc., Yellow Springs, Ohio). Animals with a temperature ≥ 37.2°C. are considered fevered. Drugs are administered orally (10 ml/kg) using distilled water and, if insoluble, one drop of a dispersing agent, e.g. "Tween 80," per 10 ml. Temperatures are recorded 2 hours past drug. Significant activity is a reduction in rectal temperature ≥ 1° from the mean control temperature. The activity of the compounds tested is expressed as ED50, the dose (mg/kg) of a compound producing a reduction of ≥ 1° in rectal temperature of fevered rats from the mean fevered control temperature in 50 percent of the animals.

Row | SMILES | ED50 [mg/kg]
9 | O=C(O)c1cc(-n2c(-c3ccccc3)cc3c2CCCCC3)ccc1O [1-(3-Carboxy-4-hydroxyphenyl)-1,4,5,6,7,8-hexahydro-2-phenylcyclohepta[b]pyrrole] | 100
10 | O=C(O)c1cc(-n2c(-c3ccccc3)cc3c2CCC3)ccc1O [1-(3-Carboxy-4-hydroxyphenyl)-2-phenyl-1,4,5,6-tetrahydrocyclopenta[b]pyrrole] | < 50
11 | O=C(O)c1cc(-n2c(-c3ccccc3)cc3c2CCCC3)ccc1O [1-(3-Carboxy-4-hydroxyphenyl)-2-phenyl-4,5,6,7-tetrahydroindole] | 41

System: not listed separately
Assay: in vivo
Conditions: rat, po
Protocol: A common but undesirable side effect of anti-inflammatory agents is the production of gastric irritation in mammals. […] Groups of male or female rats (Wistar, Long Evans or Charles River), 150-180 gm, are utilized for this assay using 10 animals per dose group. The animals are starved for 48 hours (H2 O ad lib) prior to administration of drug orally at 10 ml/kg. Drugs are prepared using distilled water solutions or, if insoluble, 1 drop of a dispersing agent, e.g. "Tween 80"/10 ml, is used with homogenization. The control group receives the vehicle only (10 ml/kg). […] Stomachs are removed and examined for gastric irritation, which is defined as ulceration and/or hemorrhage of gastric mucosa. The presence of a single ulcer or hemorrhage spot is taken as positive and stomachs must be "clean" to be negative. A dose response is run at the peak time using at least four dose levels of test drug. In the table, gastric irritability is expressed as ID50, the dose (mg/kg) of compound producing irritation in 50 percent of the animals after seven hours.

Row | SMILES | TD50 at 7 h [mg/kg]
12 | O=C(O)c1cc(-n2c(-c3ccccc3)cc3c2CCCCC3)ccc1O [1-(3-Carboxy-4-hydroxyphenyl)-1,4,5,6,7,8-hexahydro-2-phenylcyclohepta[b]pyrrole] | > 200
13 | O=C(O)c1cc(-n2c(-c3ccccc3)cc3c2CCC3)ccc1O [1-(3-Carboxy-4-hydroxyphenyl)-2-phenyl-1,4,5,6-tetrahydrocyclopenta[b]pyrrole] | 125
14 | O=C(O)c1cc(-n2c(-c3ccccc3)cc3c2CCCC3)ccc1O [1-(3-Carboxy-4-hydroxyphenyl)-2-phenyl-4,5,6,7-tetrahydroindole] | 130

System: adjuvant-induced arthritis in rats
Assay: Adjuvant-induced arthritis in rats
Type: in vivo
Conditions: Rattus norvegicus, 504 h; 10 mg/kg/day; rats; day 21; read-out: % Inhibition of Edema on Day 21, Adjuvant Injected Paw

Row | SMILES | inhibition in vivo at 10 mg/kg [%]
15 | O=C(O)c1cc(-n2c(-c3ccccc3)cc3c2CCCC3)ccc1S [1-(3-Carboxy-4-mercaptophenyl)-2-phenyl-4,5,6,7-tetrahydroindole] | 23

Same assay, conditions: Rattus norvegicus, 504 h; 10 mg/kg/day; rats; day 21; read-out: % Inhibition of Edema on Day 21, Non-Injected Paw

Row | SMILES | inhibition in vivo at 10 mg/kg [%]
16 | O=C(O)c1cc(-n2c(-c3ccccc3)cc3c2CCCC3)ccc1S [1-(3-Carboxy-4-mercaptophenyl)-2-phenyl-4,5,6,7-tetrahydroindole] | 23

Same assay, conditions: Rattus norvegicus, 504 h; 25 mg/kg/day; rats; day 21; read-out: % Inhibition of Edema on Day 21, Adjuvant Injected Paw

Row | SMILES | inhibition in vivo at 25 mg/kg [%]
17 | O=C(O)c1cc(-n2c(-c3ccccc3)cc3c2CCCC3)ccc1S [1-(3-Carboxy-4-mercaptophenyl)-2-phenyl-4,5,6,7-tetrahydroindole] | 43

Same assay, conditions: Rattus norvegicus, 504 h; 25 mg/kg/day; rats; day 21; read-out: % Inhibition of Edema on Day 21, Non-Injected Paw

Row | SMILES | inhibition in vivo at 25 mg/kg [%]
18 | O=C(O)c1cc(-n2c(-c3ccccc3)cc3c2CCCC3)ccc1S [1-(3-Carboxy-4-mercaptophenyl)-2-phenyl-4,5,6,7-tetrahydroindole] | 57

Same assay, conditions: Rattus norvegicus, 504 h; 50 mg/kg/day; rats; day 21; read-out: % Inhibition of Edema on Day 21, Adjuvant Injected Paw

Row | SMILES | inhibition in vivo at 50 mg/kg [%]
19 | O=C(O)c1cc(-n2c(-c3ccccc3)cc3c2CCCC3)ccc1O [1-(3-Carboxy-4-hydroxyphenyl)-2-phenyl-4,5,6,7-tetrahydroindole] | 38
20 | O=C(O)c1cc(-n2c(-c3ccccc3)cc3c2CCCC3)ccc1S [1-(3-Carboxy-4-mercaptophenyl)-2-phenyl-4,5,6,7-tetrahydroindole] | 67

Same assay, conditions: Rattus norvegicus, 504 h; 50 mg/kg/day; rats; day 21; read-out: % Inhibition of Edema on Day 21, Non-Injected Paw

Row | SMILES | inhibition in vivo at 50 mg/kg [%]
21 | O=C(O)c1cc(-n2c(-c3ccccc3)cc3c2CCCC3)ccc1O [1-(3-Carboxy-4-hydroxyphenyl)-2-phenyl-4,5,6,7-tetrahydroindole] | 72
22 | O=C(O)c1cc(-n2c(-c3ccccc3)cc3c2CCCC3)ccc1S [1-(3-Carboxy-4-mercaptophenyl)-2-phenyl-4,5,6,7-tetrahydroindole] | 80

Same assay, conditions: Rattus norvegicus, 504 h; 100 mg/kg/day; rats; day 21; read-out: % Inhibition of Edema on Day 21, Adjuvant Injected Paw

Row | SMILES | inhibition in vivo at 100 mg/kg [%]
23 | O=C(O)c1cc(-n2c(-c3ccccc3)cc3c2CCCCC3)ccc1O [1-(3-Carboxy-4-hydroxyphenyl)-1,4,5,6,7,8-hexahydro-2-phenylcyclohepta[b]pyrrole] | 75
24 | O=C(O)c1cc(-n2c(-c3ccc(F)cc3)cc3c2CCCC3)ccc1O [1-(3-Carboxy-4-hydroxyphenyl)-2-(4-fluorophenyl)-4,5,6,7-tetrahydroindole] | 56
25 | O=C(O)c1cc(-n2c(-c3ccccc3)cc3c2CCC3)ccc1O [1-(3-Carboxy-4-hydroxyphenyl)-2-phenyl-1,4,5,6-tetrahydrocyclopenta[b]pyrrole] | 57
26 | O=C(O)c1cc(-n2c(-c3ccccc3)cc3c2CCCC3)ccc1O [1-(3-Carboxy-4-hydroxyphenyl)-2-phenyl-4,5,6,7-tetrahydroindole] | 65

Same assay, conditions: Rattus norvegicus, 504 h; 100 mg/kg/day; rats; day 21; read-out: % Inhibition of Edema on Day 21, Non-Injected Paw

Row | SMILES | inhibition in vivo at 100 mg/kg [%]
27 | O=C(O)c1cc(-n2c(-c3ccccc3)cc3c2CCCCC3)ccc1O [1-(3-Carboxy-4-hydroxyphenyl)-1,4,5,6,7,8-hexahydro-2-phenylcyclohepta[b]pyrrole] | 90
28 | O=C(O)c1cc(-n2c(-c3ccc(F)cc3)cc3c2CCCC3)ccc1O [1-(3-Carboxy-4-hydroxyphenyl)-2-(4-fluorophenyl)-4,5,6,7-tetrahydroindole] | 64
29 | O=C(O)c1cc(-n2c(-c3ccccc3)cc3c2CCC3)ccc1O [1-(3-Carboxy-4-hydroxyphenyl)-2-phenyl-1,4,5,6-tetrahydrocyclopenta[b]pyrrole] | 75
30 | O=C(O)c1cc(-n2c(-c3ccccc3)cc3c2CCCC3)ccc1O [1-(3-Carboxy-4-hydroxyphenyl)-2-phenyl-4,5,6,7-tetrahydroindole] | 80
